Assays:
articular cartilage = assay: Aging-induced cartilage defect (CD) mouse model; assay type: in vivo, mice (strain C57/BL/6); details: 19-month-old mice, 30 mg/kg daily by gavage for 3 months
Description: WT male mice (strain C57/BL/6) were raised under identical conditions until 19 months. The vehicle, Celecoxib, and HL-43 were administered to mice at 30 mg/kg daily by gavage from 19 to 22 month, n = 9 for vehicle and HL-43-treated groups, n = 6 for Celecoxib treated group.
Knee joints of mice were fixed for 24 h in 4% paraformaldehyde (wt/vol), dehydrated into 100% ethanol, and decalcified for 1 week in 0.5 M EDTA pH 8.0. Paraffin-embedded tissue was sectioned (7 μm) and stained with Safranin O and Hematoxylin & Eosin (H&E) according to standard procedures. The OARSI histologic scoring of OA in the mouse was used to measure the cartilage and synovial damage of OA[71],[77]. Immunohistochemical staining for Col2a1, ColX, Sox9, p-CREB, and CREB were routinely performed and follow previous description. […] Histomorphometry and quantification were performed using ImageJ software. Quantification of Mmp13, ColX, Sox9 positive regions were quantified as the positive area/total cartilage area per field of view under ×40 objective magnification.

[1] = system: Mmp3, Mmp13, Col2, p-CREB, p-STAT3, p-p65, IκBα in primary mouse chondrocytes; assay: Western blotting in primary articular chondrocytes; assay type: cell-based
Description: ATDC5 cell line was purchased from Riken BioResource Center (Tsukuba, Japan) and grown in a 1:1 mixture of DMEM/F12 medium (Corning, 10-092-CVR) supplemented with 5% fetal bovine serum (Gibco, 10099, USA) and 1% penicillin-streptomycin solution (Life Technologies). Cells were maintained at 37 °C under 5% CO2. Primary chondrocytes were obtained from knee joint cartilage of newborn mice. Knee joints were dissected from the tibia plateau and femoral condyle articular cartilage of mouse pups and digested in 0.1% collagenase type II (Sigma) overnight at 37 °C and chondrocytes were harvested by centrifugation. Primary chondrocytes were cultured at a density of 5 × 10^3 cells per ml at 37 °C with 5% CO2. DMEM/F12 medium with 10% fetal bovine serum (FBS) and 1% penicillin–streptomycin was used to culture the primary chondrocytes. Chondrogenic differentiation were induced with chondrogenic medium, which contains insulin-transferrin-selenium (ITS) (Sigma, I3146), 10 ng/ml TGF-β3 (PEPROTECH, 100-36E, USA), 100 nM Dexamethasone (Sigma, D4902), 50 μg/ml VC (Sigma), 1 mM sodium pyruvate (Sigma) and 40 μg/ml proline (Sigma), and/or treatment with rmIL-1β (R&D, 401-ML/CF), TNFα (PEPROTECH, 300-01A-50) in DMEM/F12 for indicated days. Western blotting was performed according to standard protocols. Antibodies used were: rabbit anti-Mmp3 (1:1000, HuaBio), rabbit anti-Mmp13 (1:500, abcam, ab39012), rabbit anti-p-CREB (1:2000, Cell Signaling Technology, 87G3), rabbit anti-CREB (1:2000, Cell Signaling Technology, 48H2), mouse anti-GAPDH (1:5000; Sigma-Aldrich, G8795), rabbit anti-Col2 (Abcam, Ab34712), rabbit anti-STAT3 (1:2000; Abcam, ab68153), rabbit anti-p-STAT3 (Y705) (1:2000; Abcam, ab76315), rabbit anti -p65 (1:1000; CST, 3034), rabbit anti-p-p65 (1:1000; CST, 3033), and rabbit anti-IκBα (1:1000; Abways, CY5026).

[2] = system: 4 × 48-p89-Luc (Sox9 binding enhancer, Col2a1 minimal promoter) in ATDC5 cells; assay: 4 × 48-p89-Luc luciferase reporter assay; assay type: cell-based, mouse
Description: (§1) Six firefly luciferase reporters were used in the Luciferase assay, including CRE-Luc (PathDetect CRE cis-Reporting System; Stratagene, La Jolla CA) driven by a basic promoter (TATA box) plus four repeats of CRE; Sox9 promoter-Luc contains human SOX9 proximal promoter region (−1034 bp to +67 bp)[45]; 4 × 48-p89-Luc, mouse Col2a1 minimal promoter. AP-1-Luc, Nf-κb-Luc, STAT-Luc were obtained from Stratagene. Chondrocytes were cultured in 24-well plates and 300 ng firefly luciferase reporter constructs were transiently transfected using transfection reagent TransExellent-DNA (Cenji Biotech Inc, China) following manufacturer’s instruction, and 15 ng of the Copia-Renilla luciferase reporter was co-transfected as a normalization control. Cells were treated with the indicated reagents for 48 h after transfection. The Dual-Luciferase measurements were performed in triplicate using the Luciferase assay kit (Promega) and a LUMIstar Omega luminometer (BMG Labtech, Mornington, Australia).

AP-1-Luc in ATDC5 cells = assay: AP-1-Luc luciferase reporter assay; assay type: cell-based, mouse; details: 2 ng/ml IL-1β, 30 μM HL-43, 6 h
Description: as §1

[3] = system: STAT3 nuclear translocation in ATDC5 cells; assay: Immunofluorescence of STAT3 and p-STAT3 subcellular localization; assay type: cell-based, mouse; details: HL-43 (30 μM), 5 ng/ml IL-1β, 24 h
STAT-Luc in ATDC5 cells = assay: STAT-Luc luciferase reporter assay; assay type: cell-based, mouse; details: 2 ng/ml IL-1β, 30 μM HL-43, 6 h
Description: as §1

primary chondrocytes = assay: Chondrocyte micromass differentiation, Alcian blue staining; assay type: cell-based, mouse; details: chondrogenic media, 7 days
Description: ATDC5 cell line was purchased from Riken BioResource Center (Tsukuba, Japan) and grown in a 1:1 mixture of DMEM/F12 medium (Corning, 10-092-CVR) supplemented with 5% fetal bovine serum (Gibco, 10099, USA) and 1% penicillin-streptomycin solution (Life Technologies). Cells were maintained at 37 °C under 5% CO2. Primary chondrocytes were obtained from knee joint cartilage of newborn mice. Knee joints were dissected from the tibia plateau and femoral condyle articular cartilage of mouse pups and digested in 0.1% collagenase type II (Sigma) overnight at 37 °C and chondrocytes were harvested by centrifugation. Primary chondrocytes were cultured at a density of 5 × 10^3 cells per ml at 37 °C with 5% CO2. DMEM/F12 medium with 10% fetal bovine serum (FBS) and 1% penicillin–streptomycin was used to culture the primary chondrocytes. […]
Micromass cultures were rinsed with PBS, fixed in PFA for 10 min, and then incubated with Alcian blue staining solution (1.0% Alcian blue in 0.1 N HCl) overnight at 4 °C. […] Alcian blue-stained cultures were extracted using 6 M guanidine hydrochloride and absorbance was measured at 620 nm.

SMILES: C[C@H](NC(=O)c1c(-c2ccccc2)nnn1CCOc1ccc(F)cc1)c1ccc(C(=O)O)cc1 [HL-43]
- Cartilage integrity and articular cartilage thickness (articular cartilage): notably preserved cartilage integrity and had thicker articular cartilage
- Phosphorylation of CREB by Western blotting ([1]; chondrocytes, 2 ng/ml IL-1β, 100 nM PGE2, 1 h): enhanced by HL-43 in a dose-dependent manner
- Mmp3/13 expression by Western blotting ([1]; primary articular chondrocytes, 1 ng/ml IL-1β, 24 h): downregulated Mmp3/13 expression in a dose-dependent manner
- Phosphorylation of STAT3 ([1]; primary mouse articular chondrocytes, 2 ng/ml IL-1β, 1 h): reduced the phosphorylation of STAT3
- Phosphorylation of p65 and degradation of IκBα ([1]; primary mouse articular chondrocytes, IL-1β, 30 μM HL-43, 1 h): little effects
- Col2 expression by Western blotting ([1]; primary mouse chondrocytes, 24 h): dose-dependently induced Col2 expression
- 4 × 48-p89-Luc reporter activity [2]: dose-dependently increased
- AP-1 luciferase reporter activity (AP-1-Luc in ATDC5 cells): not AP-1 or NF-κB
- IL-1β-induced nuclear translocation of STAT3 and p-STAT3 [3]: suppressed
- STAT luciferase reporter activity (STAT-Luc in ATDC5 cells): significantly inhibited
- Chondrogenesis of primary chondrocytes (Alcian blue) (primary chondrocytes): promoted the chondrogenesis of the primary chondrocytes in a dose-dependent manner

Source: publication PMC8901748, “A novel prostaglandin E receptor 4 (EP4) small molecule antagonist induces articular cartilage regeneration” (Cell Discovery, 2022)
